Measured values as given in patent US9663486B2, “Selectively substituted quinoline compounds” (EISAI R&D MANAGEMENT CO., LTD., priority 2013, dated 2017).
pIC50: −log10 of the molar value.

Molecular target: T1, Human TLR9 (Homo sapiens, UniProt Q9NR96)
T1 sequence (Q9NR96 26-1032): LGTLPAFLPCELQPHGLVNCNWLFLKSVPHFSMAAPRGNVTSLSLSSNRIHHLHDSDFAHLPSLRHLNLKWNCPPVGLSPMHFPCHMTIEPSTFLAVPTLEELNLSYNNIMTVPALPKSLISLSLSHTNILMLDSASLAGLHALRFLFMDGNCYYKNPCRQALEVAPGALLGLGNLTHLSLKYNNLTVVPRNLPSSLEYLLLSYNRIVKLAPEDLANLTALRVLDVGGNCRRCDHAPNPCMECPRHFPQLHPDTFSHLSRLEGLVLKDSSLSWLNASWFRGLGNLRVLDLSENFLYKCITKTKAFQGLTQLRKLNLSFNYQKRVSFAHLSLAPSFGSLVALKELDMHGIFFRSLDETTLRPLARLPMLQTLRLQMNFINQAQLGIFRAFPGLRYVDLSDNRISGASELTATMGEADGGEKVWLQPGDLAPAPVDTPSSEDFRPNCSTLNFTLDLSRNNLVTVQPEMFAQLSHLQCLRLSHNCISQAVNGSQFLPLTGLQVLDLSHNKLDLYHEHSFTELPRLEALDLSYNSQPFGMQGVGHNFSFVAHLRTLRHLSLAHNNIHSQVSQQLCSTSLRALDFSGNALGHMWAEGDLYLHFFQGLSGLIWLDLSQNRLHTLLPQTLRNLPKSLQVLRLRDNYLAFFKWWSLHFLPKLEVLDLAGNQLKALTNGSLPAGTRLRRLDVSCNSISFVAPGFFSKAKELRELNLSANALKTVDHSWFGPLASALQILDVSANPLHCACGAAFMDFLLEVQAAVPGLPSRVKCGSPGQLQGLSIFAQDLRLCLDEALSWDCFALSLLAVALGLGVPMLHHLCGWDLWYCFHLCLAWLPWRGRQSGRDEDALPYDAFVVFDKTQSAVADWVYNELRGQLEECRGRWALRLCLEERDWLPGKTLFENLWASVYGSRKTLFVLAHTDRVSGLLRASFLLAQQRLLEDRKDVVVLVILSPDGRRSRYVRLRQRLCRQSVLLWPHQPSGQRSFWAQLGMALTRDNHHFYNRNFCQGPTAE
Assay: HEK-293 NFkB-luciferase reporter assay, CpG-ODN stimulation
Assay type: cell-based
Design: stably and individually express human TLR4, TLR7 or TLR9 full-length ORF cDNAs; expressed in transfected cells; host or cells: HEK-293 (ATCC) with ELAM-1 NF-kappaB luciferase reporter
Conditions: ligand CpG-ODN
From the text: HEK-293 cells (ATCC) were engineered to stably express a NF-kappaB transcription factor inducible E-selectin (ELAM-1) luciferase reporter derived from the plasmid pGL3 (Promega) containing base pairs −2241 bp to −254 bp from the promoter of the human E-selectin gene (Accession No. NM_000450). These cells were then subsequently engineered to stably and individually express human TLR4, TLR7 or TLR9 full-length ORF cDNAs. Human TLR4 cDNA (Accession No. NM_138554) was cloned into pcDNA 3.0 expression vector (Invitrogen). TLR4 transfected cells were also engineered to express human MD-2 co-receptor [MD-2 cDNA (Accession No. NM_015364) was cloned into the pEF-BOS vector] and were supplemented with 10 nM soluble CD14 (R&D Systems) in the media to optimize LPS responsiveness. Human TLR9 cDNA (Accession No. NM_017442) was cloned into the pBluescript II KS vector (Agilent). Human TLR7 cDNA (Accession No. NM_016562) was obtained from OriGene. HEK-293 cells stably expressing human TLR8 (Accession No. NM_138636) or mouse TLR7 (Accession No. NM_133211) were purchased from InvivoGen and were then stably transfected with pNiFty2(NF-kappaB)-luciferase reporter plasmid (InvivoGen). Each cell type was plated in Dulbecco's modified Eagle's medium (DMEM) containing 10% fetal bovine serum (FBS) at a density of 2.22×10^5 cells/ml into a 384-well plate and incubated for 2 days at 37° C., 5% CO2. […]

`C[C@H]1C[C@@H](N)CN(c2ccc(C#N)c3ncccc23)C1` [ER-888840, 5-((3R,5S)-3-amino-5-methylpiperidin-1-yl)quinoline-8-carbonitrile] showed a pIC50 of 5.06.
